Like-named read-outs stand apart in the source and are kept apart here.
Experiments:
[1] = test system: ADDP-resistant ovarian variant; design: method as in PMID 36142383; conditions: MTT assay, 72 h; cited from earlier work
SJ-G2 glioblastoma = test system: SJ-G2 glioblastoma; design: method as in PMID 36142383; conditions: MTT assay, 72 h; cited from earlier work
panel of cell lines [2] = test system: panel of cell lines; design: method as in PMID 36142383; conditions: average over the cell lines tested, MTT assay, 72 h; cited from earlier work
HT29 colon cells [3] = test system: HT29 colon cells; design: method as in PMID 36142383; conditions: cited from earlier work
H460 lung = test system: H460 lung; design: method as in PMID 36142383; conditions: MTT assay, 72 h; cited from earlier work
A431 skin = test system: A431 skin; design: method as in PMID 36142383; conditions: MTT assay, 72 h; cited from earlier work
HT29 colon [4] = test system: HT29 colon; design: method as in PMID 36142383; conditions: MTT assay, 72 h; cited from earlier work
Du145 prostate [5] = experiment: MTT growth inhibition assay, Du145; assay type: cell-based, human; conditions: Du145 prostate, ratio of GI50 values
A2780 ovarian = test system: A2780 ovarian; design: method as in PMID 36142383; conditions: MTT assay, 72 h; cited from earlier work
[6] = test system: murine leukaemia cell line (L1210); experiment: Cytotoxicity in L1210 (literature); assay type: cell-based; conditions: SS more cytotoxic than RR
Text: Chirality is crucial to the biological activity of the studied complexes.

[7] = test system: murine leukaemia cell line (L1210); conditions: cited from earlier work
BE2-C neuroblastoma = test system: BE2-C neuroblastoma; design: method as in PMID 36142383; conditions: MTT assay, 72 h; cited from earlier work
[8] = test system: non-tumour derived MCF10A breast line; design: method as in PMID 36142383; conditions: MTT assay, 72 h; cited from earlier work
Du145 prostate [9] = test system: Du145 prostate; design: method as in PMID 36142383; conditions: MTT assay, 72 h; cited from earlier work
U87 glioblastoma = test system: U87 glioblastoma; design: method as in PMID 36142383; conditions: MTT assay, 72 h; cited from earlier work
MCF-7 breast = test system: MCF-7 breast; design: method as in PMID 36142383; conditions: MTT assay, 72 h; cited from earlier work
HT29 colon [10] = experiment: MTT growth inhibition assay, HT29; assay type: cell-based, human
[11] = test system: peritoneal carcinomatosis; design: method as in PMID 20535526; conditions: cited from earlier work
MIA pancreas = test system: MIA pancreas; design: method as in PMID 36142383; conditions: MTT assay, 72 h; cited from earlier work
[12] = test system: ADDP-resistant ovarian variant; experiment: MTT growth inhibition assay, ADDP; assay type: cell-based, human
HT29 colon cells [13] = experiment: ROS detection assay (DCFH-DA); assay type: cell-based, human; conditions: HT29 colon cells, treated at GI50 concentration (TBHP positive control 20 μM)
[14] = test system: PC3 (prostate carcinoma) tumour xenografts; design: method as in PMID 18997969; conditions: PC3 xenograft mice; cited from earlier work
[15] = design: method as in earlier work; conditions: heterocyclic ligand; cited from earlier work
panel of cell lines [16] = experiment: MTT growth inhibition assay, whole panel of cell lines; assay type: cell-based, human; conditions: platinum(IV) precursor less cytotoxic than platinum(II) precursor, all cell lines

Compound | GI50 [1] [nM] | GI50 (SJ-G2 glioblastoma) [nM] | GI50 (panel of cell lines [2]) [nM] | ROS production 24 h (HT29 colon cells [3]) [RFU] | ROS production 48 h (HT29 colon cells [3]) [RFU] | ROS production 72 h (HT29 colon cells [3]) [RFU] | GI50 (H460 lung) [nM] | GI50 (A431 skin) [nM] | GI50 (HT29 colon [4]) [nM] | GI50 (A2780 ovarian) [nM] | GI50 [7] [nM] | GI50 (BE2-C neuroblastoma) [nM] | GI50 [8] [nM] | GI50 (Du145 prostate [9]) [nM] | GI50 (U87 glioblastoma) [nM] | GI50 (MCF-7 breast) [nM] | GI50 (MIA pancreas) [nM] | other results
Cc1c(C)c2cccnc2c2ncccc12.N[C@H]1CCCC[C@@H]1N.[Pt] [Complex 56MESS, [Pt^II(5,6-Me2phen)(SS-DACH)]^2+] | 13 ± 2 | 66 ± 22 | 36 ± 10 | 240 ± 5 | 218 ± 3 | 255 ± 4 | 21 ± 2 | 29 ± 1 | 10 ± 1.6 | 76 ± 57 | 9 | 59 ± 4 | 16 ± 1 | 4.6 ± 0.4 | 35 ± 6.4 | 93 ± 44 | 13 ± 2 | fold increase in potency over carboplatin (Du145 prostate [5]): ~3300 fold; fold increase in potency over oxaliplatin (Du145 prostate [5]): 630 fold; fold difference in cytotoxicity between RR-DACH and SS-DACH enantiomer [6]: 51 fold; fold more reactive compared to cisplatin (HT29 colon [10]; HT29 colon, ratio of GI50 values): 1100 fold; nephrotoxicity ([11]; at pharmacological doses): induced nephrotoxicity; tumour suppression response ([11]; intravenous and intraperitoneal treatment): did not elicit a tumour suppression response; fold more potent than cisplatin ([12]; ADDP-resistant ovarian variant, ratio of GI50 values): 2150 fold
N.N.[Cl][Pt][Cl] [Cisplatin, Cis-diamminedichloroplatinum(II)] | 28000 | 400 ± 100 | 5840 ± 610 | – | – | – | 900 ± 200 | 2400 ± 300 | 11300 | 1000 ± 100 | – | 1900 ± 200 | 5200 ± 520 | 1200 ± 100 | 3800 ± 1100 | 6500 ± 800 | 7500 ± 1300 | ROS production 24 h (HT29 colon cells [13]; 24 h): 221 ± 10 RFU; ROS production 48 h (HT29 colon cells [13]; 48 h): 280 ± 12 RFU; ROS production 72 h (HT29 colon cells [13]; 72 h): 318 ± 9 RFU; mean tumour weight in relation to the control group [14]: comparable decrease in mean tumour weight
Cc1c(C)c2cccnc2c2ncccc12 [5,6-Me2phen, 5,6-dimethyl-1,10-phenanthroline] | – | – | – | – | – | – | – | – | – | – | – | – | – | – | – | – | – | pKa [15]: 5.6
Cc1c(C)c2c3c4c1=CC=C[N]4[Pt+2]([OH])([OH])[N]3C=CC=2.N[C@H]1CCCC[C@@H]1N [56MESS(IV)(OH)2] | 170 ± 120 | 210 ± 45 | 151 ± 50 | 259 ± 3 | 356 ± 11 | 438 ± 7 | 190 ± 150 | 120 ± 22 | 36 ± 7 | 59 ± 7 | – | 240 ± 22 | 61 ± 7 | 15 ± 2.6 | 190 ± 23 | 480 ± 140 | 43 ± 2.5 | fold difference in average GI50 versus corresponding platinum(II) precursor (panel of cell lines [16]): 4 fold
C1=C[N]2[Pt+2][N]3C=CC=c4ccc(c2c43)=C1.N[C@H]1CCCC[C@@H]1N [PHENSS, [Pt^II(phen)(SS-DACH)]^2+] | 190 ± 47 | 330 ± 66 | 434 ± 110 | 174 ± 2 | 172 ± 9 | 176 ± 7 | 360 ± 35 | 480 ± 170 | 160 ± 45 | 230 ± 30 | 130 | 380 ± 46 | 300 ± 58 | 100 ± 38 | 980 ± 270 | 1500 ± 500 | 200 ± 57 | fold difference in cytotoxicity between RR-DACH and SS-DACH enantiomer [6]: ~12 fold; mean tumour weight in relation to the control group [14]: comparable decrease in mean tumour weight; toxicity / mortality [14]: no obvious signs of toxicity; fold more reactive compared to cisplatin (HT29 colon [10]): 70 fold; fold more potent than cisplatin [12]: ~150 fold
N[C@H]1CCCC[C@@H]1N.[OH][Pt+2]1([OH])[N]2C=CC=c3ccc4c(c32)[N]1C=CC=4 [PHENSS(IV)(OH)2] | 1300 ± 350 | 1700 ± 350 | 3320 ± 880 | 144 ± 5 | 273 ± 4 | 303 ± 1 | 1700 ± 200 | 4300 ± 530 | 710 ± 300 | 800 ± 84 | – | 3000 ± 530 | 1700 ± 200 | 310 ± 92 | 4900 ± 610 | 16000 | 3400 ± 2200 | fold difference in average GI50 versus corresponding platinum(II) precursor (panel of cell lines [16]): ~8 fold
c1cnc2c(c1)ccc1cccnc12 [phen, 1,10-phenanthroline] | – | – | – | – | – | – | – | – | – | – | – | – | – | – | – | – | – | pKa [15]: 4.9
C1=C[N]2[Pt+2][N]3C=CC=c4ccc(c2c43)=C1.N[C@@H]1CCCC[C@H]1N [PHENRR] | – | – | – | – | – | – | – | – | – | – | 1500 | – | – | – | – | – | – | –
Cc1c(C)c2c3c4c1=CC=C[N]4[Pt+2][N]3C=CC=2.N[C@@H]1CCCC[C@H]1N [Complex 56MERR] | – | – | – | – | – | – | – | – | – | – | 460 | – | – | – | – | – | – | –
